Laboratory results taken from the supplement of paper PMC10307832.

Columns and labels:
Assay in all cases: relative viability (nuclei count vs DMSO), 5 days (fraction); higher = more cells survive
[1] = compound: C1CC(C2=C(C1)C3=C(N2)C=CC(=C3)Cl)C(=O)N [Selisistat] + C[C@]1(O)C[C@@H](c2nc(-c3ccc4ccc(-c5ccccc5)nc4c3)c3c(N)nccn32)C1 [Linsitinib] (partner 1 µM)
Summary of the method: (§1)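 Lung cancer cell lines were seeded in 1536-well plates and dosed by pin tool the next day, with either a single drug or a fixed anchor-drug dose combined with five library-drug doses (not always all listed) spaced in √10 steps. Five days later, one step fixed the cells and stained their nuclei (final 0.05% Triton X-100, 1% formaldehyde, 1 ug/ml Hoechst), and nuclei were counted on 4× images. Relative viability is the nuclei count in treated wells divided by the count in vehicle wells, and each value is the median of duplicate plates.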

[2] = compound: C1CC(C2=C(C1)C3=C(N2)C=CC(=C3)Cl)C(=O)N [Selisistat] + CC(=O)Nc1cccc(-n2c(=O)n(C3CC3)c(=O)c3c(Nc4ccc(I)cc4F)n(C)c(=O)c(C)c32)c1 [Trametinib] (partner 0.02 µM)
Summary of the method: as §1

[3] = compound: C1CC(C2=C(C1)C3=C(N2)C=CC(=C3)Cl)C(=O)N [Selisistat] + CC1(C)CCC(c2ccc(Cl)cc2)=C(CN2CCN(c3ccc(C(=O)NS(=O)(=O)c4ccc(N[C@H](CCN5CCOCC5)CSc5ccccc5)c(S(=O)(=O)C(F)(F)F)c4)cc3)CC2)C1 [Navitoclax] (partner 0.5 µM)
Summary of the method: as §1

[4] = compound: C1CC(C2=C(C1)C3=C(N2)C=CC(=C3)Cl)C(=O)N [Selisistat] + CC(=O)c1c(C)c2cnc(Nc3ccc(N4CCNCC4)cn3)nc2n(C2CCCC2)c1=O [Palbociclib] (partner 0.5 µM)
Summary of the method: as §1

Cell Line | relative viability ([1]; first compound 0.4 µM) | relative viability ([1]; first compound 1.265 µM) | relative viability ([1]; first compound 12.65 µM) | relative viability ([1]; first compound 40 µM) | relative viability ([2]; first compound 0.4 µM) | relative viability ([2]; first compound 1.265 µM) | relative viability ([2]; first compound 12.65 µM) | relative viability ([2]; first compound 40 µM) | relative viability ([3]; first compound 0.4 µM) | relative viability ([3]; first compound 1.265 µM) | relative viability ([3]; first compound 12.65 µM) | relative viability ([3]; first compound 40 µM) | relative viability ([4]; first compound 0.4 µM) | relative viability ([4]; first compound 1.265 µM) | relative viability ([4]; first compound 12.65 µM) | relative viability ([4]; first compound 40 µM) | relative viability ([1]; first compound 4 µM) | relative viability ([2]; first compound 4 µM) | relative viability ([4]; first compound 4 µM) | relative viability ([3]; first compound 4 µM)
NCI-H23 | 0.631 | 0.466 | 0.579 | 0.6 | 0.402 | 0.318 | 0.427 | 0.485 | 0.853 | 0.936 | 0.943 | 0.876 | 0.57 | 0.51 | 0.538 | 0.441 | – | – | – | –
NCI-H322M | 1 | 1.03 | 0.959 | 0.976 | 0.483 | 0.575 | 0.567 | 0.545 | 1.26 | 1.18 | 1.26 | 1.47 | 0.488 | 0.467 | 0.478 | 0.5 | – | – | – | –
NCI-H441 | 0.648 | 0.639 | 0.448 | 0.554 | 0.455 | 0.432 | 0.398 | 0.452 | 0.608 | 0.619 | 0.697 | 0.626 | 0.24 | 0.186 | 0.217 | 0.239 | 0.502 | 0.363 | 0.136 | –
NCI-H460 | 0.848 | 0.663 | 0.821 | 0.824 | 0.129 | 0.128 | 0.117 | 0.142 | 1.2 | 1.16 | 1.08 | 1.3 | 0.163 | 0.149 | 0.15 | 0.113 | – | 0.0976 | 0.137 | –
NCI-H520 | 0.823 | 0.954 | 0.967 | 0.969 | 0.545 | 0.599 | 0.681 | 0.637 | 1.06 | 0.959 | 1.13 | 1.03 | 0.224 | 0.208 | 0.274 | 0.236 | 0.982 | 0.651 | 0.198 | 1.18
NCI-H647 | 1.15 | 1.12 | 1.07 | 1.26 | 0.467 | 0.457 | 0.472 | 0.474 | 1.11 | – | 0.993 | 1.13 | 0.415 | 0.331 | 0.433 | 0.396 | – | 0.449 | 0.398 | –
NCI-H727 | 0.297 | 0.292 | – | 0.395 | 0.467 | 0.38 | 0.427 | 0.44 | 0.501 | 0.445 | – | 0.38 | 0.738 | 0.613 | 0.601 | 0.637 | – | 0.409 | 0.442 | –
NCI-H838 | 1.06 | 1.06 | 1.06 | 1.06 | 0.592 | 0.482 | 0.516 | 0.507 | 1.31 | 1.2 | 1.12 | 1.22 | 0.208 | 0.223 | 0.242 | 0.206 | 1.03 | 0.511 | 0.185 | 1.13
NCI-H1355 | 0.903 | 0.838 | 0.974 | 0.996 | 0.422 | 0.462 | 0.438 | 0.43 | 1.01 | 0.887 | 1.03 | 1.03 | 0.432 | 0.401 | 0.438 | 0.437 | – | 0.422 | 0.389 | –
